Laboratory results as given in ChEMBL document CHEMBL3808394, “Synthesis and decreasing Aβ content evaluation of arctigenin-4-yl carbamate derivatives” (Bioorg Med Chem Lett, 2016).
The source made the active and inactive calls. The rule behind the calls is not given here.

What was measured:
Type in all cases: cell-based
[1] = molecular target: Amyloid-beta precursor protein (Homo sapiens) (UniProt P05067); test: Reduction in amyloid beta 40 content (unknown origin) expressed in HEK293 cells expressing APP K595N/M596L Swedish mutant at 20 uM after 24 hrs by ELISA
[2] = molecular target: Amyloid-beta precursor protein (Homo sapiens) (UniProt P05067); test: Reduction in amyloid beta 40 content (unknown origin) expressed in HEK293 cells expressing APP K595N/M596L Swedish mutant at 0.1 uM after 24 hrs by ELISA
[3] = molecular target: Amyloid-beta precursor protein (Homo sapiens) (UniProt P05067); test: Reduction in amyloid beta 40 content (unknown origin) expressed in HEK293 cells expressing APP K595N/M596L Swedish mutant at 1 uM after 24 hrs by ELISA
[4] = molecular target: Amyloid-beta precursor protein (Homo sapiens) (UniProt P05067); test: Reduction in amyloid beta 40 content (unknown origin) expressed in HEK293 cells expressing APP K595N/M596L Swedish mutant at 10 uM after 24 hrs by ELISA

Sequence of Amyloid-beta precursor protein (Homo sapiens) (P05067 whole entry): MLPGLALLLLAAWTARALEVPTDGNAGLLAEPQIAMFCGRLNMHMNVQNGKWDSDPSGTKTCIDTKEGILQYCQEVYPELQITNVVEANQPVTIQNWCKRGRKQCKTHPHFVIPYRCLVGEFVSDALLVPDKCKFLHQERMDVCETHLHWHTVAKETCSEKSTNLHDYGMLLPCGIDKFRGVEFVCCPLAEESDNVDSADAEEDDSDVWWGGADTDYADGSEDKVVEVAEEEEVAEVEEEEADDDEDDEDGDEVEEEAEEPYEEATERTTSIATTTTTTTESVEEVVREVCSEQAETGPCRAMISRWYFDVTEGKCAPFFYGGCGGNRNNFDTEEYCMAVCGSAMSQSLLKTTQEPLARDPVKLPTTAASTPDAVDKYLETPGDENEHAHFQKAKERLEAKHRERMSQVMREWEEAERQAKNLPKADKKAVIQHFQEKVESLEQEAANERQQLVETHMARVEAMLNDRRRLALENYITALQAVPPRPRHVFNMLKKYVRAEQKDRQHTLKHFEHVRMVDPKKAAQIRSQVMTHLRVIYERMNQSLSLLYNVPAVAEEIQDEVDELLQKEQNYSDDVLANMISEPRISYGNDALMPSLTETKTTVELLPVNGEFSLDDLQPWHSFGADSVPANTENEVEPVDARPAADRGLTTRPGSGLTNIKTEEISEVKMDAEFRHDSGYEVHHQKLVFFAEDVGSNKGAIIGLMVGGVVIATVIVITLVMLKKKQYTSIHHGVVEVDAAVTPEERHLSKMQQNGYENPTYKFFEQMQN

Compound	inhibition [1] [%]	further results
COc1ccc(C[C@H]2COC(=O)[C@@H]2Cc2ccc(OC(=O)NC3CCCCC3)c(OC)c2)cc1OC	35.4	–
COc1ccc(Cl)cc1NC(=O)Oc1ccc(C[C@H]2C(=O)OC[C@@H]2Cc2ccc(OC)c(OC)c2)cc1OC	42.4	–
COc1ccc(C[C@H]2COC(=O)[C@@H]2Cc2ccc(OC(=O)Nc3cccc(Cl)c3C)c(OC)c2)cc1OC	62.8	–
CCNC(=O)Oc1ccc(C[C@H]2C(=O)OC[C@@H]2Cc2ccc(OC)c(OC)c2)cc1OC	36.3	–
CCCNC(=O)Oc1ccc(C[C@H]2C(=O)OC[C@@H]2Cc2ccc(OC)c(OC)c2)cc1OC	20.3	–
CNC(=O)Oc1ccc(C[C@H]2C(=O)OC[C@@H]2Cc2ccc(OC)c(OC)c2)cc1OC	29.8	–
COc1cc(C[C@H]2C(=O)OC[C@@H]2Cc2ccc(OC)c(OC)c2)ccc1O	44.6	inhibition [2]: inactive; inhibition [3]: inactive; inhibition [4]: Active
COc1ccc(C[C@H]2COC(=O)[C@@H]2Cc2ccc(OC(=O)N(C)C)c(OC)c2)cc1OC	28.5	–
COc1ccc(C[C@H]2COC(=O)[C@@H]2Cc2ccc(OC(=O)Nc3ccccc3)c(OC)c2)cc1OC	43.5	–
COc1ccc(C[C@H]2COC(=O)[C@@H]2Cc2ccc(OC(=O)N(C)c3ccccc3)c(OC)c2)cc1OC	30	–
COc1ccc(C[C@H]2COC(=O)[C@@H]2Cc2ccc(OC(=O)NC(C)C)c(OC)c2)cc1OC	21.4	–
COc1ccc(C[C@H]2COC(=O)[C@@H]2Cc2ccc(OC(=O)NCCc3ccccc3)c(OC)c2)cc1OC	49	–
COc1ccc(C[C@H]2COC(=O)[C@@H]2Cc2ccc(OC(=O)Nc3cc(Cl)cc(Cl)c3)c(OC)c2)cc1OC	56	–
COc1ccc(C[C@H]2COC(=O)[C@@H]2Cc2ccc(OC(=O)Nc3ccc(F)c(Cl)c3)c(OC)c2)cc1OC	60.5	–
COc1ccc(C[C@H]2COC(=O)[C@@H]2Cc2ccc(N3CCCCC3)c(OC)c2)cc1OC	26.2	–
COc1ccc(C[C@H]2COC(=O)[C@@H]2Cc2ccc(OC(=O)Nc3cccc([N+](=O)[O-])c3)c(OC)c2)cc1OC	63	–
COc1ccc(C[C@H]2COC(=O)[C@@H]2Cc2ccc(OC(=O)N[C@@H](C)c3ccccc3)c(OC)c2)cc1OC	70.8	–

Second part, led by results:

inhibition [1] [%]	Compound	further results
66.9	COc1ccc(C[C@H]2COC(=O)[C@@H]2Cc2ccc(OC(=O)Nc3ccc(Cl)cc3)c(OC)c2)cc1OC	inhibition [2]: inactive; inhibition [3]: Active; inhibition [4]: Active
58.3	COc1ccc(C[C@H]2COC(=O)[C@@H]2Cc2ccc(OC(=O)Nc3ccccc3Cl)c(OC)c2)cc1OC	–
61.7	COc1ccccc1NC(=O)Oc1ccc(C[C@H]2C(=O)OC[C@@H]2Cc2ccc(OC)c(OC)c2)cc1OC	–
41.3	COc1ccc(C[C@H]2COC(=O)[C@@H]2Cc2ccc(OC(=O)NCc3ccccc3)c(OC)c2)cc1OC	–
56	COc1ccc(C[C@H]2COC(=O)[C@@H]2Cc2ccc(OC(=O)Nc3cccc(C#N)c3)c(OC)c2)cc1OC	–
53.7	COc1ccc(C[C@H]2COC(=O)[C@@H]2Cc2ccc(OC(=O)Nc3ccc(C)c(Cl)c3)c(OC)c2)cc1OC	–
11.9	CCN(CC)C(=O)Oc1ccc(C[C@H]2C(=O)OC[C@@H]2Cc2ccc(OC)c(OC)c2)cc1OC	–
55	COc1ccc(C[C@H]2COC(=O)[C@@H]2Cc2ccc(OC(=O)Nc3cccc(C)c3)c(OC)c2)cc1OC	–
61	COc1ccc(C[C@H]2COC(=O)[C@@H]2Cc2ccc(OC(=O)Nc3cccc(F)c3)c(OC)c2)cc1OC	–
41	COc1ccc(C[C@H]2COC(=O)[C@@H]2Cc2ccc(OC(=O)N(C)c3cccc(Cl)c3)c(OC)c2)cc1OC	–
52.8	COc1cccc(NC(=O)Oc2ccc(C[C@H]3C(=O)OC[C@@H]3Cc3ccc(OC)c(OC)c3)cc2OC)c1	–
52.9	COc1ccc(NC(=O)Oc2ccc(C[C@H]3C(=O)OC[C@@H]3Cc3ccc(OC)c(OC)c3)cc2OC)cc1	–
78.7	COc1ccc(C[C@H]2COC(=O)[C@@H]2Cc2ccc(OC(=O)Nc3cccc(Cl)c3)c(OC)c2)cc1OC	inhibition [2]: inactive; inhibition [3]: Active; inhibition [4]: Active
45	COc1ccc(C[C@H]2COC(=O)[C@@H]2Cc2ccc(OC(=O)N[C@H](C)c3ccccc3)c(OC)c2)cc1OC	–
